Measurements reported in patent US9376425B2, “Heterocyclic compounds as MDM2 inhibitors for the treatment of cancer” (AMGEN INC., priority 2011, dated 2016).

target: T1, human MDM2 (GST-hMDM2 1-188), interaction with biotinylated-p53 (1-83) (Homo sapiens, UniProt Q00987); assay: improved HTRF assay (HTRF2 assay), inhibition of HDM2-p53 interaction; assay type: binding; details: 0.2 nM GST-hMDM2, 0.5 nM biotinylated-p53, 100 mM KF
T1 construct: Amino acid residues 1-188 of human MDM2 were expressed; made in house; host or cells: Escherichia coli
T1 sequence (Q00987 1-188): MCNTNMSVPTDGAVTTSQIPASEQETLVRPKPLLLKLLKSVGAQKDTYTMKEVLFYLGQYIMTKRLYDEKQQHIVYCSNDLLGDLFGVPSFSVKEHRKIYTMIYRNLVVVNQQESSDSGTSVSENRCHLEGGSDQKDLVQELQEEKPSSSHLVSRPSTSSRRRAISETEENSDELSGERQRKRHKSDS
How it was run: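 GST-hMDM2 preincubated 20 min at RT with serially diluted compound, then biotinylated p53 (1-83, E. coli) added for 60 min. Detection with SA-XLent, anti-GST cryptate and KF, equilibrated >4 h; final DMSO 2%. TR-FRET read; % inhibition calculated relative to nutlin-3.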

| Compound | IC50 [nM] |
| --- | --- |
| CC[C@@H](CS(=O)(=O)C1CCC1)N1C(=O)[C@@H](CC(=O)O)O[C@H](c2cccc(Cl)c2)[C@H]1c1ccc(Cl)cc1 (single isomer, unassigned) [Example 142, 2-((2R,5R,6R)-6-(3-chlorophenyl)-5-(4-chlorophenyl)-4-((S)-1-(cyclobutylsulfonyl)butan-2-yl)-3-oxomorpholin-2-yl)acetic acid or 2-((2S,5R,6R)-6-(3-chlorophenyl)-5-(4-chlorophenyl)-4-((S)-1-(cyclobutylsulfonyl)butan-2-yl)-3-oxomorpholin-2-yl)acetic acid] | 7 |
| O=C1[C@@H](Cc2nnn[nH]2)O[C@H](c2cccc(Cl)c2)[C@@H](c2ccc(Cl)cc2)N1[C@H](CN(c1ccccc1F)S(=O)(=O)C1CC1)C1CC1 (single isomer, unassigned) [Example 398, N-((S)-2-((2R,5R,6R)-2-((1H-Tetrazol-5-yl)methyl)-6-(3-chlorophenyl)-5-(4-chlorophenyl)-3-oxomorpholino)-2-cyclopropylethyl)-N-(2-fluorophenyl)cyclopropanesulfonamide or N-((S)-2-((2S,5R,6R)-2-((1H-tetrazol-5-yl)methyl)-6-(3-chlorophenyl)-5-(4-chlorophenyl)-3-oxomorpholino)-2-cyclopropylethyl)-N-(2-fluorophenyl)cyclopropanesulfonamide] | < 1 |
| CC[C@@H](CN(c1ncccc1F)S(=O)(=O)C1CC1)N1C(=O)[C@@H](CC(=O)O)O[C@H](c2cccc(Cl)c2)[C@H]1c1ccc(Cl)cc1 (single isomer, unassigned) [Example 177, 2-((2R,5R,6R)-6-(3-chlorophenyl)-5-(4-chlorophenyl)-4-((S)-1-(N-(3-fluoropyridin-2-yl)cyclopropanesulfonamido)butan-2-yl)-3-oxomorpholin-2-yl)acetic acid or 2-((2S,5R,6R)-6-(3-chlorophenyl)-5-(4-chlorophenyl)-4-((S)-1-(N-(3-fluoropyridin-2-yl)cyclopropanesulfonamido)butan-2-yl)-3-oxomorpholin-2-yl)acetic acid] | < 1 |
| CC[C@@H]([C@H](C)S(=O)(=O)C(C)(C)C)N1C(=O)[C@@H](CC(=O)O)O[C@H](c2cccc(Cl)c2)[C@H]1c1ccc(Cl)cc1 (single isomer, unassigned) [Example 420] | 12 |
| NC(=O)C[C@@H]1O[C@H](c2cccc(Cl)c2)[C@@H](c2ccc(Cl)cc2)N([C@H](CN(c2ccccc2F)S(=O)(=O)C2CC2)C2CC2)C1=O (single isomer, unassigned) [Example 256, 2-((2S,5R,6R)-6-(3-chlorophenyl)-5-(4-chlorophenyl)-4-((S)-1-cyclopropyl-2-(N-(2-fluorophenyl)cyclopropanesulfonamido)ethyl)-3-oxomorpholin-2-yl)acetamide or 2-((2R,5R,6R)-6-(3-chlorophenyl)-5-(4-chlorophenyl)-4-((S)-1-cyclopropyl-2-(N-(2-fluorophenyl)cyclopropanesulfonamido)ethyl)-3-oxomorpholin-2-yl)acetamide] | < 1 |
| CC(C)(C)S(=O)(=O)C[C@H](C1CC1)N1C(=O)[C@@H](CC(=O)NCC#N)O[C@H](c2cccc(Cl)c2)[C@H]1c1ccc(Cl)cc1 (single isomer, unassigned) [Example 348, 2-((2R,5R,6R)-4-((S)-2-(tert-Butylsulfonyl)-1-cyclopropylethyl)-6-(3-chlorophenyl)-5-(4-chlorophenyl)-3-oxomorpholin-2-yl)-N-(cyanomethyl)acetamide or 2-((2S,5R,6R)-4-((S)-2-(tert-butylsulfonyl)-1-cyclopropylethyl)-6-(3-chlorophenyl)-5-(4-chlorophenyl)-3-oxomorpholin-2-yl)-N-(cyanomethyl)acetamide] | 5 |
| CC[C@@H](CN(c1ccccc1F)S(=O)(=O)C1CC1)N1C(=O)[C@H](CC(=O)NS(C)(=O)=O)O[C@H](c2cccc(Cl)c2)[C@H]1c1ccc(Cl)cc1 (single isomer, unassigned) [Example 239, 2-((2S,5R,6R)-6-(3-chlorophenyl)-5-(4-chlorophenyl)-4-((S)-1-(N-(2-fluorophenyl)cyclopropanesulfonamido)butan-2-yl)-3-oxomorpholin-2-yl)-N-(methylsulfonyl)acetamide or 2-((2R,5R,6R)-6-(3-chlorophenyl)-5-(4-chlorophenyl)-4-((S)-1-(N-(2-fluorophenyl)cyclopropanesulfonamido)butan-2-yl)-3-oxomorpholin-2-yl)-N-(methylsulfonyl)acetamide] | < 1 |
| CC(C)[C@@H](CS(=O)(=O)C(C)(C)C)N1C(=O)[C@@H](CC(=O)O)O[C@H](c2cccc(Cl)c2)[C@H]1c1ccc(Cl)c(F)c1 (single isomer, unassigned) [Example 310] | 1 |
| CC[C@@H](CS(=O)(=O)N1CCC[C@H]1C)N1C(=O)[C@@H](CC(=O)O)O[C@H](c2cccc(Cl)c2)[C@H]1c1ccc(Cl)cc1 (single isomer, unassigned) [Example 210, 2-((2R,5R,6R)-6-(3-chlorophenyl)-5-(4-chlorophenyl)-4-((S)-1-(((R)-2-methylpyrrolidin-1-yl)sulfonyl)butan-2-yl)-3-oxomorpholin-2-yl)acetic acid or 2-((2S,5R,6R)-6-(3-chlorophenyl)-5-(4-chlorophenyl)-4-((S)-1-(((R)-2-methylpyrrolidin-1-yl)sulfonyl)butan-2-yl)-3-oxomorpholin-2-yl)acetic acid] | 1 |
| C[C@]1(CC(=O)O)O[C@H](c2cccc(Cl)c2)[C@@H](c2ccc(Cl)cc2)N([C@H](CN(c2ccccc2F)S(=O)(=O)C2CC2)C2CC2)C1=O (single isomer, unassigned) [Example 332, 2-((2R,5R,6R)-6-(3-Chlorophenyl)-5-(4-chlorophenyl)-4-((S)-1-cyclopropyl-2-(N-(2-fluorophenyl)cyclopropanesulfonamido)ethyl)-2-methyl-3-oxomorpholin-2-yl)acetic acid or 2-((2S,5R,6R)-6-(3-chlorophenyl)-5-(4-chlorophenyl)-4-((S)-1-cyclopropyl-2-(N-(2-fluorophenyl)cyclopropanesulfonamido)ethyl)-2-methyl-3-oxomorpholin-2-yl)acetic acid] | 27 |
| CC[C@@H](CN(c1ccccc1F)S(=O)(=O)C1CC1)N1C(=O)[C@@H](CCC(=O)O)O[C@H](c2cccc(Cl)c2)[C@H]1c1ccc(Cl)cc1 (single isomer, unassigned) [Example 263, 3-((2R,5R,6R)-6-(3-chlorophenyl)-5-(4-chlorophenyl)-4-((S)-1-(N-(2-fluorophenyl)cyclopropanesulfonamido)butan-2-yl)-3-oxomorpholin-2-yl)propanoic acid or 3-((2S,5R,6R)-6-(3-chlorophenyl)-5-(4-chlorophenyl)-4-((S)-1-(N-(2-fluorophenyl)cyclopropanesulfonamido)butan-2-yl)-3-oxomorpholin-2-yl)propanoic acid] | 2 |
| CC[C@]1(CC(=O)O)O[C@H](c2cccc(Cl)c2)[C@@H](c2ccc(Cl)cc2)N([C@@H](CC(F)(F)F)CS(=O)(=O)C(C)(C)C)C1=O (single isomer, unassigned) [Example 342, 2-((2R,5R,6R)-4-((S)-1-(tert-Butylsulfonyl)-4,4,4-trifluorobutan-2-yl)-6-(3-chlorophenyl)-5-(4-chlorophenyl)-2-ethyl-3-oxomorpholin-2-yl)acetic acid or 2-((2S,5R,6R)-4-((S)-1-(tert-butylsulfonyl)-4,4,4-trifluorobutan-2-yl)-6-(3-chlorophenyl)-5-(4-chlorophenyl)-2-ethyl-3-oxomorpholin-2-yl)acetic acid] | 104 |
| C[C@@H](CS(=O)(=O)C(C)(C)C)N1C(=O)[C@@H](CC(=O)NCCO)O[C@H](c2cccc(Cl)c2)[C@H]1c1ccc(Cl)cc1 (single isomer, unassigned) [Example 234, 2-((2R,5R,6R)-4-((S)-1-(tert-butylsulfonyl)propan-2-yl)-6-(3-chlorophenyl)-5-(4-chlorophenyl)-3-oxomorpholin-2-yl)-N-(2-hydroxyethyl)acetamide or 2-((2S,5R,6R)-4-((S)-1-(tert-butylsulfonyl)propan-2-yl)-6-(3-chlorophenyl)-5-(4-chlorophenyl)-3-oxomorpholin-2-yl)-N-(2-hydroxyethyl)acetamide] | 15 |
| CN(C(C)(C)C)S(=O)(=O)C[C@H](C1CC1)N1C(=O)[C@@H](CC(=O)O)O[C@H](c2cccc(Cl)c2)[C@H]1c1ccc(Cl)cc1 (single isomer, unassigned) [Example 301, 2-((2R,5R,6R)-4-((S)-2-(N-(tert-Butyl)-N-methylsulfamoyl)-1-cyclopropylethyl)-6-(3-chlorophenyl)-5-(4-chlorophenyl)-3-oxomorpholin-2-yl)acetic acid or 2-((2S,5R,6R)-4-((S)-2-(N-(tert-butyl)-N-methylsulfamoyl)-1-cyclopropylethyl)-6-(3-chlorophenyl)-5-(4-chlorophenyl)-3-oxomorpholin-2-yl)acetic acid] | < 1 |
| CC[C@@H]([C@H](C)S(=O)(=O)C(C)C)N1C(=O)[C@@H](CC(=O)O)O[C@H](c2cccc(Cl)c2)[C@H]1c1ccc(Cl)cc1 (single isomer, unassigned) [Example 415] | 1 |
| 2-((2R,5R,6R)-6-(3-Chlorophenyl)-5-(4-chlorophenyl)-4-((3S,5R)-5-hydroxyhexan-3-yl)-3-oxomorpholin-2-yl)acetic acid or 2-((2R,5R,6R)-6-(3-Chlorophenyl)-5-(4-chlorophenyl)-4-((3S,5S)-5-hydroxyhexan-3-yl)-3-oxomorpholin-2-yl)acetic acid [Example 127] | 34 |
